Results from patent US8404696B2, “Quinazoline-2,4-dione derivative, and medical compositions for the prophylaxis and treatment of cranial nerve disease containing the same” (Shin Poong Pharmaceutical Co., Ltd., priority 2008, dated 2013).

Columns and labels:
[1] = system: thoracic aorta of rats; test: Relaxing effect on thoracic aorta contracted by phenylephrine (organ bath); parameters: species or system rats of SD species; conditions: for Relaxation percentage (Mean ± standard deviation): n = 3
Summary of the method: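 Thoracic aortic rings (2 mm) from ether-anesthetized male SD rats (250-300 g) were mounted in Krebs buffer gassed with 95% O2/5% CO2 and equilibrated at 1.0 g basal tension for 90 min. After stable contraction with phenylephrine (0.5 μM), compounds were added and relaxation recorded.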

[2] = system: SH-SY5Y cells; test: Inhibitory effect on ZnSO4-mediated cytotoxicity (MTT assay); assay type: cell-based, humans; conditions: compound 50 μg/ml; 600 μM zinc sulfate, 24 hours
Experimental: SH-SY5Y cells were cultured with 3×10^4 cell concentration in 96 well plates, and the compound (50 μg/ml) was treated. After 30 minutes, 600 μM of zinc sulfate was treated to induce toxicity for 24 hours and survival rate of cells was measured by MTT assay.

## CC(=O)N(CCCCNCCCn1c(=O)[nH]c2ccccc2c1=O)CCCn1c(=O)[nH]c2ccccc2c1=O [Compound 3, N-[3-(2,4-dioxo-1,4-dihydro-2H-quinazolin-3-yl)propyl]-N-{4-[3-(2,4-dioxo-1,4-dihydro-2H-quinazolin-3-yl)propylamino]butyl}acetamide]
[1]; 50 μg/mL, phenylephrine 0.5 μM
  Relaxation percentage (Mean ± standard deviation): 16.2 ± 4.4%
[1]; 100 μg/mL, phenylephrine 0.5 μM
  Relaxation percentage (Mean ± standard deviation): 44.2 ± 8.5%
[1]; 200 μg/mL, phenylephrine 0.5 μM
  Relaxation percentage (Mean ± standard deviation): 65.6 ± 7.1%
[1]; 50, 100 and 200 μg/mL
  Relaxation of thoracic aorta contracted by phenylephrine, dose dependence: dose-dependently relaxed the thoracic aorta of rats contracted by phenylephrine
[1]; Rattus norvegicus, 67 μg/mL, phenylephrine 0.5 μM, mean n = 3, read-out: Relaxation percentage
  inhibition at 67 µg/mL: 27.4%
[2]
  inhibitory percentage, zinc-induced toxicity: 17.6 ± 3.5%
